Reference: patent publication US4918056A, “2-substituted arabinopyranosyl nucleosides and nucleotides” (priority 1986, dated 1990)

Assays:
L1210 leukemia cells [1] = experiment: Reversal of L1210 growth inhibition by salvageable nucleosides; format: cell-based, mouse; settings: for IC50: Mus musculus
Procedure: Reversal studies were conducted as follows: […], 85027 or 5-FdUr were added at various concentrations near their IC50 to cultures of L1210 leukemia cells, maintained in PRMI 1640 medium supplemented with 10% fetal calf serum and 16mM HEPES, pH 7.2 as described in Example 9. Nucleosides including thymidine (1×10^-5 M), uridine (1×10^-4 M), deoxyuridine ([…]), adenosine (1×10^-4 M), or guanosine (1×10^-5 M) were also added to identical drug (85024, 85027 or 5-FdUr) containing L1210 leukemia cultures. Cellular growth inhibition or its prevention by the addition of salvageable nucleosides was determined 48 hours later by counting cells using an electronic Coulter Counter.

L1210 leukemia = experiment: Therapeutic activity of 85027, 5-FU and ara-C in DBA/2 mice with L1210 leukemia; format: in vivo, mouse (DBA/2); parameters: Mean ± SD survival: unit not given here; settings: for Median survival: control 6; for Mean ± SD survival: control 6.4 ± 0.2
Procedure: The therapeutic activity of 85027 was compared with that of 5-Fluorouracil (5-FU) and Cytosine Arabinoside (ara-C) in DBA/2 mice with L1210 Leukemia. (Table 3) Tests were performed in accordance with the procedure described in Example 8. […] 5-FU was administered i.p. on days 1,3 and 6.

L1210/ara-C leukemia = experiment: Therapeutic activity in DBA/2N mice with ara-C resistant L1210 leukemia
Procedure: (§1) In conducting the evaluations, the activity was tested against intraperitoneal (i.p.) implanted leukemia in mice.
(§2) DBA/2N female mice (20 g) were implanted i.p. with 1×10^6 L1210 leukemia cells on day 0. Mice were weighed and inspected for tumor growth and survival daily. […] Dosages varied from 1 to 800 mg/kg/day (mkd).
(§3) Survival time was measured in days after tumor implantation. % ILS (increase in life span) was based on mean survival.
(§4) Testing was followed as described in the NCI protocol and evaluation by comparison of median survival time (ST) of the treated animals to that of the control animals by the percentage increase in % ILS.
(§5) Drug resistant L1210 leukemia cell sublines were obtained from the National Cancer Institute. […] Eight mice were used as controls and five mice for each drug dosage group. Drugs were administered i.p. once per day on days 1, 2, 3, 4 and 5.

L1210 leukemia cells [2] = experiment: L1210 leukemia cell growth inhibition (48 hr, Coulter counter); format: cell-based, mouse; settings: for IC50: Mus musculus, L1210, RPMI 1640, 10% fetal calf serum; for growth inhibitory activity in words: compared with 85024
Procedure: Compounds 85024, 85023, 85058, 85027 and 85060 having a glycosidic linkage between the 2'carbon of the arabinose (in pyranose configuration) and base were evaluated for their growth inhibitory action on L1210 leukemia cells maintained in RPMI 1640 medium supplemented with 10% fetal calf serum and 16 mM HEPES, pH 7.2. Cellular growth inhibition was determined by incubating […] for 48 hr in 2 ml of media containing varying concentrations of drugs. Cell growth inhibition (50% growth inhibitory concentration, IC50) was determined after counting cells with a Coulter counter (Bernacki et al., Cancer Res. 45, 695, 1985). Drug concentrations which inhibited cell growth by 50% (IC50) are listed for each compound in Table 1.

L1210/5-FU leukemia = experiment: Therapeutic activity in DBA/2N mice with 5-FU resistant L1210 leukemia; format: in vivo, mouse (DBA/2N female)
Procedure: as §1, §2, §3, §4, §5

[3] = 5 mkd i.p. (head: × 5; text: × 3, days 1, 3 and 6)
[4] = 25 mkd i.p. (head: × 5; text: × 3, days 1, 3 and 6)

O=c1[nH]c(=O)n([C@H]2C[C@H](O)[C@@H](CO)O2)cc1F [5-FdUr, 5-Fluorodeoxyuridine, reference compound]
IC50 (L1210 leukemia cells [1]; L1210, with 1×10^-5 M thymidine): > 0.01 µM | IC50 (L1210 leukemia cells [1]; L1210, without added thymidine): 0.0003 µM

Nc1ccn([C@@H]2O[C@H](CO)[C@@H](O)[C@@H]2O)c(=O)n1 [ara-C, Cytosine Arabinoside]
Survival Range (L1210 leukemia; 50 mkd × 5 i.p.): 9 to 14 days | Median survival (L1210 leukemia; 50 mkd × 5 i.p.): 14 days | Mean ± SD survival (L1210 leukemia; 50 mkd × 5 i.p.): 13.0 ± 1.0 | Survival Range (L1210 leukemia; 100 mkd × 5 i.p.): 14 to 15 days | Median survival (L1210 leukemia; 100 mkd × 5 i.p.): 14 days | Mean ± SD survival (L1210 leukemia; 100 mkd × 5 i.p.): 14.4 ± 0.2 | Survival Range (L1210 leukemia; 200 mkd × 5 i.p.): 8 to 19 days | Median survival (L1210 leukemia; 200 mkd × 5 i.p.): 9 days | Mean ± SD survival (L1210 leukemia; 200 mkd × 5 i.p.): 12.4 ± 2.3 | % ILS (increase in life span) (L1210 leukemia; ara-C, 50 mkd × 5 i.p., p < .05): 104% | % ILS (increase in life span) (L1210 leukemia; ara-C, 100 mkd × 5 i.p., p < .01): 126% | % ILS (increase in life span) (L1210 leukemia; ara-C, 200 mkd × 5 i.p., p < .01): 95% | effect on lifespan (L1210 leukemia; i.p. 5 day schedule, 50, 100 and 200 mg/kg): most effective causing a doubling of lifespan | Survival Range (L1210/ara-C leukemia; 100 mkd × 5 i.p.): 7-7 days | % ILS (increase in life span) (L1210/ara-C leukemia; 100 mkd × 5 i.p., NS): 0% | Median survival (L1210/ara-C leukemia; 100 mkd × 5 i.p., control 7): 7 days | Mean ± SD survival (L1210/ara-C leukemia; 100 mkd × 5 i.p., control 7.1 + 0.1): 0 days | therapeutic effect (L1210/ara-C leukemia; mice with L1210/ara-C leukemia (Table 4)): no therapeutic effect | Mean Animal Weight (L1210/ara-C leukemia; mouse, in vivo, ip): 20.0 g

COC1OC[C@H]2OC(C)(C)O[C@H]2C1(F)n1ccc(=O)[nH]c1=O (mixture of isomers) [compound 85023, Methyl 2-deoxy-3,4-0-isopropylidene-2-rac-[1H,3H-2,4-dioxo-1-pyrimidinyl]-2-fluoro-α-D-arabinopyranoside [5g] and Methyl 2-deoxy-3,4-0-isopropylidene-2-rac-[1H,3H-2,4-dioxo-1-pyrimidinyl]-2-fluoro-β-D-arabinopyranoside [6g]]
IC50 (L1210 leukemia cells [2]): > 100 µM | growth inhibitory activity in words (L1210 leukemia cells [2]): loss in biological inactivity

CCCCCC(=O)O[C@@H]1[C@H](OC(=O)CCCCC)COC(OC)[C@@]1(F)n1ccc(=O)[nH]c1=O (stereo partly drawn) [compound 85058, Methyl 2-deoxy-2(R)-[1H,3H-2,4-dioxo-1-pyrimidinyl]-2-fluoro-3,4-di-0-hexanoyl-α-D-arabinopyranoside [5d] and Methyl 2-deoxy-2(R)-[1H,3H-2,4-dioxo-1-pyrimidinyl]-2-fluoro-3,4-di-0-hexanoyl-β-D-arabinopyranoside [6d]]
IC50 (L1210 leukemia cells [2]): 40 µM | growth inhibitory activity in words (L1210 leukemia cells [2]): did not significantly affect activity

COC1OC[C@@H](OC(C)=O)[C@@H](OC(C)=O)[C@]1(F)n1cc(F)c(=O)[nH]c1=O (stereo partly drawn) [compound 85027, Methyl 3,4-di-0-acetyl-2-deoxy-2(R)-[1H,3H-2,4-dioxo-5-fluoro-1-pyrimidinyl]-2-fluoro-α-D-arabinopyranoside [5b] and Methyl 3,4-di-0-acetyl-2-deoxy-2(R)-[1H,3H-2,4-dioxo-5-fluoro-1-pyrimidinyl]-2-fluoro-β-D-arabinopyranoside[6b]]
IC50 (L1210 leukemia cells [2]): 34 µM | Survival Range (L1210 leukemia; 50 mkd × 5 i.p.): 8-8 days | Median survival (L1210 leukemia; 50 mkd × 5 i.p.): 8 days | Mean ± SD survival (L1210 leukemia; 50 mkd × 5 i.p.): 8 ± 0 | Survival Range (L1210 leukemia; 100 mkd × 5 i.p.): 7 to 8 days | Median survival (L1210 leukemia; 100 mkd × 5 i.p.): 8 days | Mean ± SD survival (L1210 leukemia; 100 mkd × 5 i.p.): 7.8 ± 0.2 | Survival Range (L1210 leukemia; 200 mkd × 5 i.p.): 8 to 9 days | therapeutic activity compared with araC (L1210 leukemia; 200 mkd × 5 i.p.): less therapeutic activity than araC | Median survival (L1210 leukemia; 200 mkd × 5 i.p.): 8 days | Mean ± SD survival (L1210 leukemia; 200 mkd × 5 i.p.): 8.2 ± 0.22 | % ILS (increase in life span) (L1210 leukemia; 85027, 50 mkd × 5 i.p., p < 0.01): 25% | % ILS (increase in life span) (L1210 leukemia; 85027, 100 mkd × 5 i.p., p < 0.05): 22% | % ILS (increase in life span) (L1210 leukemia; 85027, 200 mkd × 5 i.p., p < 0.01): 29% | cross resistance to ara-C and 5-FU (L1210/ara-C leukemia; summary of L1210/ara-C and L1210/5-FU tests): not cross resistant | reversal of cellular cytotoxicity by exogenous nucleosides (L1210 leukemia cells [1]; exogenous thymidine, uridine or deoxyuridine, tissue culture): not reversed by exogenous thymidine, uridine or deoxyuridine | effect of added nucleoside on the IC50 (L1210 leukemia cells [1]; thymidine (1×10^-5 M), uridine (1×10^-4 M) or deoxyuridine (1×10^-5 M)): < 10%

COC1OC[C@@H](OC(C)=O)[C@@H](OC(C)=O)[C@]1(F)n1cc(C)c(=O)[nH]c1=O (stereo partly drawn) [compound 85060, Methyl 3,4-di-0-acetyl-2-deoxy-2(R)-[1H,3H-2,4-dioxo-5-methyl-1-pyrimidinyl]-2-fluoro-α-D-arabinopyranoside [5c] and Methyl 3,4-di-0-acetyl-2-deoxy-2(R)-[1H,3H-2,4-dioxo-5-methyl-1-pyrimidinyl]-2-fluoro-β-D-arabinopyranoside [6c]]
IC50 (L1210 leukemia cells [2]): > 100 µM | growth inhibitory activity in words (L1210 leukemia cells [2]): inactive

O=c1[nH]cc(F)c(=O)[nH]1 [5-FU, 5-Fluorouracil]
% ILS (increase in life span) (L1210 leukemia; 5-FU, 5 mkd i.p. (head: × 5; text: × 3, days 1, 3 and 6), p < .01): 41% | % ILS (increase in life span) (L1210 leukemia; 5-FU, 25 mkd i.p. (head: × 5; text: × 3, days 1, 3 and 6), p < .01): 88% | % ILS (increase in life span) (L1210 leukemia; 5-FU, 50 mkd × 5 i.p., p < .01): 34% | % ILS (increase in life span) (L1210 leukemia; 5-FU, 100 mkd × 5 i.p., p < .05): 22% | % ILS (increase in life span) (L1210 leukemia; 5-FU, 200 mkd × 5 i.p., p < .05): 22% | Survival Range (L1210 leukemia; [3]): 9-9 days | Median survival (L1210 leukemia; [3]): 9 days | Mean ± SD survival (L1210 leukemia; [3]): 9 | Survival Range (L1210 leukemia; [4]): 12-12 days | Median survival (L1210 leukemia; [4]): 12 days | Mean ± SD survival (L1210 leukemia; [4]): 12 | toxicity to mice (L1210 leukemia; 50, 100 and 200 mkd × 5 i.p.): extremely toxic to mice causing severe weight loss | weight to which mice fell (severe weight loss) (L1210 leukemia; 50, 100 and 200 mkd × 5 i.p.): 13 to 14 g | Survival Range (L1210 leukemia; 50 mkd × 5 i.p.): 8 to 9 days | Median survival (L1210 leukemia; 50 mkd × 5 i.p.): 9 days | Mean ± SD survival (L1210 leukemia; 50 mkd × 5 i.p.): 8.6 ± 0.2 | Survival Range (L1210 leukemia; 100 mkd × 5 i.p.): 7 to 8 days | Median survival (L1210 leukemia; 100 mkd × 5 i.p.): 8 days | Mean ± SD survival (L1210 leukemia; 100 mkd × 5 i.p.): 7.8 ± 0.2 | Survival Range (L1210 leukemia; 200 mkd × 5 i.p.): 7 to 8 days | Median survival (L1210 leukemia; 200 mkd × 5 i.p.): 8 days | Mean ± SD survival (L1210 leukemia; 200 mkd × 5 i.p.): 7.8 ± 0.2 | therapeutic effect (L1210/5-FU leukemia; 25 mkd × 5): did not | % ILS (increase in life span) (L1210/5-FU leukemia; 25 mkd × 5 i.p.): 12% | Mean Animal Weight (L1210/5-FU leukemia; 25 mkd × 5 i.p.): 17.6 g | Survival Range (L1210/5-FU leukemia; 25 mkd × 5 i.p.): 5 to 9 days | Median survival (L1210/5-FU leukemia; 25 mkd × 5 i.p., control 9): 8 days | Mean ± SD survival (L1210/5-FU leukemia; 25 mkd × 5 i.p., control 9.25 ± 0.2): 7.6 ± 0.7 days
